Measurements as given in paper PMC7808749, “Morpholine-based chalcones as dual-acting monoamine oxidase-B and acetylcholinesterase inhibitors: synthesis and biochemical investigations” (Journal of Enzyme Inhibition and Medicinal Chemistry, 2021).
≈ marks a conversion by molar mass, not a printed value. Entries after “also recorded” stand apart in the source; their conditions may differ. Read-outs that look alike come from different tables or passages of the source.

Experiments:
in vitro = test: in vitro
Source text: The synthesised derivatives were screened for their abilities to cross the BBB using the parallel artificial membrane permeability assay (PAMPA) because this ability is a critical developmental requirement for any drug targeting neurodegenerative disorders or depression.

[1] = PAMPA-BBB reported values; cited from earlier work
recombinant human MAO-A = target: T1, recombinant human MAO-A (Homo sapiens, UniProt P21397); test: MAO-A inhibition assay (kynuramine substrate); assay type: biochemical; conditions: for remaining activity at 10 µM: read-out: Residual activities (%) MAO-A (10 µM)
T1 sequence (P21397 1-527): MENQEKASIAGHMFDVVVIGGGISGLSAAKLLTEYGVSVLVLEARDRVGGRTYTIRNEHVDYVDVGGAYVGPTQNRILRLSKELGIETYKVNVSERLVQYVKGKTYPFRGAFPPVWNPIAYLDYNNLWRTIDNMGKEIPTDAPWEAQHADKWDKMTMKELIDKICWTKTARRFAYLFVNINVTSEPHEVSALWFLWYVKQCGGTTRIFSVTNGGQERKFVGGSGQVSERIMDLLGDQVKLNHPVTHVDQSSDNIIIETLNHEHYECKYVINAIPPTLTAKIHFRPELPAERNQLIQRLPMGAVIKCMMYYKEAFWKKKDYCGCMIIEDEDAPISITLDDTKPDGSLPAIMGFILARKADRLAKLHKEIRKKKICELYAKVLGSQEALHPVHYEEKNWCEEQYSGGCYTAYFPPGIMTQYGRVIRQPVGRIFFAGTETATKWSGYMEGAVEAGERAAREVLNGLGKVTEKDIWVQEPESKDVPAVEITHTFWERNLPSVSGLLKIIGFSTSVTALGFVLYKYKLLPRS
Description: (§1) MAO-A, MAO-B, AChE and BChE activities were measured after exposure to inhibitors at a concentration of 10 µM. […] IC50 values were determined by measuring the residual enzyme activities. […] Ki values and inhibitor types were determined by kinetic testing, as previously described. […] Lineweaver–Burk plots and their secondary plots were used to determine Ki values and inhibitor types.

MAO-B [2] = target: T2, MAO-B (Homo sapiens, UniProt P27338); test: MAO-B inhibition assay (benzylamine substrate); assay type: biochemical; conditions: for remaining activity at 1 µM: read-out: Residual activities (%) MAO-B (1.0 µM); for SI = IC50 of MAO-A/IC50 of MAO-B: selectivity for MAO-B over MAO-A
T2 sequence (P27338 1-520): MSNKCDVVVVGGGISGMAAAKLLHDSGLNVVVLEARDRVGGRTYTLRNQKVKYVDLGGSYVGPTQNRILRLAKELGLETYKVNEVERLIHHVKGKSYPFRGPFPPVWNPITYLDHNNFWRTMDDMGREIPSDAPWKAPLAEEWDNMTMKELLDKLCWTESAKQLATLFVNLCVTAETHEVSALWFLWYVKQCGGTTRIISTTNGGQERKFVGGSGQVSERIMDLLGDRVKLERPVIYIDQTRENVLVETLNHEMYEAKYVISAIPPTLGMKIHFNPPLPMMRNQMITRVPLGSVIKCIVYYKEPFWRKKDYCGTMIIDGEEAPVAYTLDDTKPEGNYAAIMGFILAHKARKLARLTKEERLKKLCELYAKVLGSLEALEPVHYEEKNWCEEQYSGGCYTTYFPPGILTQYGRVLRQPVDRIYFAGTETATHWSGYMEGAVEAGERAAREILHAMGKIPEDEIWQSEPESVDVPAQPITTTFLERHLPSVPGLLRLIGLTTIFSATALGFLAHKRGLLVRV

BChE = BChE (Equus caballus, UniProt P81908); test: biochemical; conditions: for remaining activity at 10 µM: read-out: Residual activities (%) BChE (10 µM)
Chain of BChE (P81908 whole entry): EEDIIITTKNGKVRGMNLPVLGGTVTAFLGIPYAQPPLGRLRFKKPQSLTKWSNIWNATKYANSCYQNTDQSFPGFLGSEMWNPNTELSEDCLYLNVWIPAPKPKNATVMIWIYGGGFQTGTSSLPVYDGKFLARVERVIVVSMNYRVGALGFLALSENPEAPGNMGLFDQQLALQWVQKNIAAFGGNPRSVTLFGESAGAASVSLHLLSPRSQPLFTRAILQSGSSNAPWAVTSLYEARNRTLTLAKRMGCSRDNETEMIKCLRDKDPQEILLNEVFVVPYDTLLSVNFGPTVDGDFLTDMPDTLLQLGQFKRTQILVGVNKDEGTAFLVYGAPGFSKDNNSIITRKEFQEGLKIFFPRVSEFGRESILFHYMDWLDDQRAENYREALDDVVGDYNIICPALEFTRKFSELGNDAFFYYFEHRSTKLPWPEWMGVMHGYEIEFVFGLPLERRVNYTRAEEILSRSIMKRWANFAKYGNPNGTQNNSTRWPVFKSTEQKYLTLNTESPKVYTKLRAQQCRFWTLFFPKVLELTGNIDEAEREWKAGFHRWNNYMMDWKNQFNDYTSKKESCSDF
Description: Colour development was performed using 0.5 mM 5,5′-dithiobis (2-nitrobenzoic acid) (DTNB), which reacts with thiocholine (a product of ATCI by AChE or of BTCI by BChE) to produce 5-thio 2-nitrobenzoic acid.
as §1

normal VERO cells = test: MTT cytotoxicity assay; conditions: for IC50: Chlorocebus sabaeus, Vero, read-out: IC50 in normal VERO cells
MAO-B [3] = target: T2, MAO-B; test: Kinetics of MAO-B inhibition (Lineweaver-Burk and secondary plots); assay type: biochemical
Description: as §1

MAO-B [4] = target: T2, MAO-B; test: Reversibility of MAO-B inhibition by dialysis; assay type: biochemical; conditions: for MAO-B residual activity, dialysed (AD): after 6 h dialysis
Description: Figure 6. […] For recovery experiments, preincubated enzyme mixtures were dialysed as described in the text.
Inhibition types (reversible or irreversible) were determined by dialysis, as previously described^51,52, but by using 0.06 mM kynuramine and 0.3 mM benzylamine. For the experiment of AChE, 0.5 mM ATCI was used. […] Residual activities were calculated using the measured activities of undialyzed (AU) and dialysed (AD) solutions and the activities of untreated controls (i.e. without inhibitor).

Hela cells = test: Total ROS assay in H2O2-treated cells; assay type: cell-based, human; conditions: for ROS levels in H2O2-treated Hela cells: 40 µg/mL compound, 100 μg/mL H2O2, fluorescent image analysis
Source text: ROS are considered to be the radicals primarily responsible for the neuronal death observed in various neurodegenerative disorders.
Figure 7.

AChE [5] = target: T3, AChE (Electrophorus electricus, UniProt O42275); test: AChE inhibition assay (modified Ellman method, ATCI); assay type: biochemical; conditions: 15 min pre-incubation, mean ± SE
T3 sequence (O42275 24-633): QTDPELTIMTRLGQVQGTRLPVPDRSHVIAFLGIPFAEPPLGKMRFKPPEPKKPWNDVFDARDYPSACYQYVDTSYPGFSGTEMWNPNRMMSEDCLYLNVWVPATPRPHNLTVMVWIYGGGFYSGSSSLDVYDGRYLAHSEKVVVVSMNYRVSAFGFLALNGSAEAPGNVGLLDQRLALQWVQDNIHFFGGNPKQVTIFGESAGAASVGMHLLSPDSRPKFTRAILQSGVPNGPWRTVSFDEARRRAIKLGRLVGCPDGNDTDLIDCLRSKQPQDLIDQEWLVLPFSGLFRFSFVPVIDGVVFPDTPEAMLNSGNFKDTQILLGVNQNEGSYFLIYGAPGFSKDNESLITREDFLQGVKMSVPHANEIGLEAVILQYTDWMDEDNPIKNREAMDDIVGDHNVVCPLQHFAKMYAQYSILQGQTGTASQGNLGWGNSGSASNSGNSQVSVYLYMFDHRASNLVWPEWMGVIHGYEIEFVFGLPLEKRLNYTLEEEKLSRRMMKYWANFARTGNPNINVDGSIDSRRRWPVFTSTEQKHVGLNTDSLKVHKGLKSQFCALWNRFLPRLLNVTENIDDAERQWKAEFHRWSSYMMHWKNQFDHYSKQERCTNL

AChE [6] = target: T3, AChE; test: Kinetics of AChE inhibition (Lineweaver-Burk and secondary plots); assay type: biochemical
Description: as §1

AChE [7] = target: T3, AChE; test: Reversibility of AChE inhibition by dialysis; assay type: biochemical; conditions: for Reversibility of AChE inhibition: dialysis; for AChE residual activity, dialysed (AD) / AChE residual activity, undialyzed (AU): inhibitor ~2 × IC50; for AChE residual activity, dialysed (AD): after 6 h dialysis; for AChE residual activity, undialyzed (AU): before dialysis

SMILES | Papp (in vitro; PAMPA) | Prediction (BBB permeation class) (in vitro; PAMPA-BBB, class from Pe) | remaining activity at 10 µM (recombinant human MAO-A; inhibitor 10 µM, mean ± SE) | IC50 (recombinant human MAO-A; mean ± SE) | IC50 (MAO-B [2]) | remaining activity at 1 µM (MAO-B [2]) | SI = IC50 of MAO-A/IC50 of MAO-B (MAO-B [2]) | remaining activity at 10 µM (BChE) | other results
CN1C(C(=O)Nc2ccccn2)=C(O)c2ccccc2S1(=O)=O [Piroxicam, reference compound] | 2.35 ± 0.3 ×10⁻⁶ cm/s | CNS+/- |  |  |  |  |  |  | Bibliography Pe (×10^−6 cm s^−1) [1]: 2.5 ×10^−6 cm s^−1
O=C(/C=C/c1ccc(Cl)cc1)c1ccc(N2CCOCC2)cc1 [MO8] |  |  | 83.7 ± 4.02% | > 40 µM | 0.32 ± 0.16 µM | 34.6 ± 5.44% | >125.0 | 74.61 ± 0.73% | 
O=C(/C=C/c1ccccc1)c1ccc(N2CCOCC2)cc1 [MO1] | 16.34 ± 0.16 ×10⁻⁶ cm/s | CNS+ (CNS+ (high): Pe (10^−6 cm s^−1) > 4.00) |  |  |  | 38.1 ± 9.5% |  | 62.9 ± 2.97% | IC50 (normal VERO cells): 195 µg/mL (≈ 665 µM); Toxicity to normal VERO cells (normal VERO cells; MTT assay): non-toxic; Type of MAO-B inhibition (MAO-B [3]): reversible mixed-type inhibitor; remaining activity at 10 µM (recombinant human MAO-A): 94.2 ± 0.62%; IC50 (MAO-B [2]; read-out: IC50 (µM) MAO-B, mean ± SE): 0.03 ± 0.062 µM; Reversibility of MAO-B inhibition (MAO-B [4]; dialysis): reversible inhibitor; MAO-B residual activity, dialysed (AD) (MAO-B [4]; inhibitor ~2 × IC50): 77.1%; ROS levels in H2O2-treated Hela cells (Hela cells): significantly lower ROS levels than MO9; Colony formation induced by H2O2 (Hela cells; Hela cells): markedly reduced; BBB permeation (in vitro; PAMPA-BBB): crossed the blood–brain barrier; IC50 (AChE [5]): 16.1 ± 2.24 µM
COc1ccc(/C=C/C(=O)c2ccc(N3CCOCC3)cc2)cc1 [MO3] |  |  | 91 ± 3.17% | > 40 µM | 1.01 ± 0.08 µM | 79.9 ± 5.28% | >39.6 | 56.8 ± 2.97% | 
CN(C)c1ccc(/C=C/C(=O)c2ccc(N3CCOCC3)cc2)cc1 [MO5] | 14.4 ± 0.81 ×10⁻⁶ cm/s | CNS+ (CNS+ (high): Pe (10^−6 cm s^−1) > 4.00) |  |  |  |  |  |  | Type of AChE inhibition (AChE [6]): reversibly competitively inhibited; IC50 in normal VERO cells (normal VERO cells; MTT assay): 185.44 µg/mL (≈ 551 µM); Toxicity to normal VERO cells (normal VERO cells; MTT assay): non-toxic; Residual activities (%) MAO-A (10 µM) (recombinant human MAO-A; inhibitor 10 µM, mean ± SE): 88.1 ± 3.43%; ROS levels in H2O2-treated Hela cells (Hela cells): significantly lower ROS levels than MO9; BBB permeation (in vitro; PAMPA-BBB): crossed the blood–brain barrier; Reversibility of AChE inhibition (AChE [7]): reversible inhibitors; AChE residual activity, dialysed (AD) (AChE [7]): 79.2%; AChE residual activity, undialyzed (AU) (AChE [7]): 35.8%; Residual activities (%) BChE (10 µM) (BChE; inhibitor 10 µM, mean ± SE): 60.86 ± 1.07%; IC50 (AChE [5]): 6.1 ± 0.0048 µM; Residual activities (%) AChE (10 µM) (AChE [5]; inhibitor 10 µM): 34.5 ± 9.51%
Cc1ccc(/C=C/C(=O)c2ccc(N3CCOCC3)cc2)cc1 [MO4] |  |  | 70.2 ± 1.24% | 25.8 ± 1.58 µM | 0.33 ± 0.03 µM | 49 ± 1.45% | 78.2 | 80.3 ± 6.43% | 
O=C(/C=C/c1ccc(Br)cc1)c1ccc(N2CCOCC2)cc1 [MO9] | 14.61 ± 0.08 ×10⁻⁶ cm/s | CNS+ (CNS+ (high): Pe (10^−6 cm s^−1) > 4.00) | 79.8 ± 1.54% | > 40 µM | 0.36 ± 0.16 µM | 51.3 ± 2.42% | >111.1 | 70.2 ± 5.5% | Type of AChE inhibition (AChE [6]): reversibly noncompetitively inhibited; also recorded: non-competitively; IC50 (normal VERO cells): 188 µg/mL (≈ 506 µM); Toxicity to normal VERO cells (normal VERO cells; MTT assay): non-toxic; BBB permeation (in vitro; PAMPA-BBB): crossed the blood–brain barrier; Reversibility of AChE inhibition (AChE [7]): reversible inhibitors; AChE residual activity, dialysed (AD) (AChE [7]): 80.7%; AChE residual activity, undialyzed (AU) (AChE [7]): 33.8%
CCn1cc(C(=O)O)c(=O)c2cc(F)c(N3CCNC(C)C3)c(F)c21 (stereo not shown) [Lomefloxacin, reference compound] | 1.26 ± 0.01 ×10⁻⁶ cm/s | CNS- (CNS- (low): Pe (10^−6 cm s^−1) <2.00) |  |  |  |  |  |  | 
NCCNC(=O)c1ccc(Cl)cn1 [Lazabemide, reference compound] |  |  |  |  |  |  |  |  | MAO-B residual activity, dialysed (AD) (MAO-B [4]; inhibitor ~2 × IC50): 90.0%; MAO-B residual activity, undialyzed (AU) (MAO-B [4]; inhibitor ~2 × IC50, before dialysis): 38.8%
O=C(/C=C/c1ccc(O)cc1)c1ccc(N2CCOCC2)cc1 [MO2] |  |  | 93.8 ± 1.34% | > 40 µM | 0.7 ± 0.23 µM | 54.5 ± 5.28% | > 57.1 | 63.5 ± 3.3% | 
CCc1ccc(/C=C/C(=O)c2ccc(N3CCOCC3)cc2)cc1 [MO6] |  |  | 12.3 ± 1.58% | 8.7 ± 1.32 µM | 0.64 ± 0.04 µM | 64.1 ± 1.37% | 13.6 | 70.96 ± 0.36% | 
NCCc1ccc(O)c(O)c1 [Dopamine, reference compound] |  |  |  |  |  |  |  |  | Prediction (BBB permeation class) (in vitro; PAMPA): CNS- (key: CNS+ (high): Pe (10^−6 cm s^−1) > 4.00; CNS- (low): Pe (10^−6 cm s^−1) <2.00; CNS± (uncertain): Pe (10^−6 cm s^−1) from 4.00 to 2.00); Bibliography Pe (×10^−6 cm s^−1) [1]: 0.2 ×10^−6 cm s^−1
O=C(/C=C/c1ccc([N+](=O)[O-])cc1)c1ccc(N2CCOCC2)cc1 [MO7] |  |  |  | 7.1 ± 0.41 µM | 0.25 ± 0.05 µM | 26.1 ± 5.44% | 28.4 | 70.2 ± 4.76% | 
